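Cells were grown in 96-well plates and exposed to each compound for 48 hours at five concentrations; endpoints were interpolated linearly between bracketing concentrations, or set to the highest concentration if not reached. The concentration for 50% growth inhibition is given as GI50.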 Activity calls are given as the source filed them. No stated cut-off is given here; in the data, active = GI50 up to about 1.1 µM and inactive = higher.
Key:
Experiment in all cases: NCI-60 cell line screen, 48 h
786-0 = system: 786-0
EKVX = system: EKVX
UO-31 = system: UO-31
A549 = system: A549
MOLT-4 = system: MOLT-4
HCC 2998 = system: HCC 2998
CAKI-1 = system: CAKI-1
CCRF-CEM = system: CCRF-CEM
HL-60 = system: HL-60
OVCAR-5 = system: OVCAR-5
NCI-H460 = system: NCI-H460
KM12 = system: KM12
SN12C = system: SN12C
ACHN = system: ACHN
NCI-H23 = system: NCI-H23
RPMI-8226 = system: RPMI-8226

Measured: GI50

CCN(CC)CCNC(=O)c1cccc2cc3ccccc3nc12
inactive: 786-0 6.15 µM | EKVX 5.73 µM | UO-31 3.45 µM | A549 3.56 µM | MOLT-4 2.96 µM | HCC 2998 5.89 µM | CAKI-1 4.48 µM | CCRF-CEM 5.69 µM | HL-60 4.8 µM | OVCAR-5 6.21 µM | NCI-H460 2.88 µM | KM12 8 µM | SN12C 5.18 µM | ACHN 3.45 µM

NNC(=O)C(=O)N/N=C(\CCCC(=O)Nc1ccc(Cl)cc1)CC(=O)c1ccc(F)cc1
inactive: 786-0 > 100 µM | EKVX > 100 µM | UO-31 > 100 µM | A549 > 100 µM | MOLT-4 > 100 µM | HCC 2998 > 100 µM | NCI-H23 > 100 µM | CCRF-CEM > 100 µM | HL-60 > 100 µM | RPMI-8226 36.1 µM | OVCAR-5 > 100 µM | NCI-H460 > 100 µM | KM12 > 100 µM | SN12C > 100 µM | ACHN 17.8 µM

O=C(Nc1ccc([N+](=O)[O-])cc1)C1C(=O)C(=O)N(c2ccc([N+](=O)[O-])cc2)C1=O (configuration not stated)
inactive: 786-0 67.1 µM | EKVX > 100 µM | UO-31 78 µM | A549 > 100 µM | MOLT-4 > 100 µM | HCC 2998 > 100 µM | NCI-H23 > 100 µM | CAKI-1 74.6 µM | CCRF-CEM > 100 µM | HL-60 > 100 µM | RPMI-8226 46.5 µM | OVCAR-5 > 100 µM | NCI-H460 34.5 µM | KM12 > 100 µM | SN12C > 100 µM | ACHN 32.8 µM

CCOC(=O)c1cc2c(nc1N)-c1ncccc1CC2
inactive: 786-0 82.2 µM | EKVX 43.8 µM | UO-31 88.1 µM | A549 38.5 µM | MOLT-4 47.6 µM | HCC 2998 > 100 µM | NCI-H23 37.2 µM | CAKI-1 > 100 µM | CCRF-CEM 20.4 µM | HL-60 28.1 µM | RPMI-8226 22.6 µM | OVCAR-5 > 100 µM | NCI-H460 77.1 µM | KM12 49.9 µM | SN12C 94.4 µM | ACHN 61.7 µM

C/C=C1\C=C(OC)CN(CCc2c[nH]c3ccccc23)C1
inactive: 786-0 59 µM | EKVX 60.7 µM | UO-31 75 µM | A549 80.7 µM | MOLT-4 > 100 µM | HCC 2998 18 µM | NCI-H23 > 100 µM | CCRF-CEM > 100 µM | HL-60 61 µM | RPMI-8226 73.8 µM | NCI-H460 26 µM | KM12 52.2 µM | SN12C 59.6 µM | ACHN > 100 µM

COC(=O)CCC(=O)Nc1cc(C)ccc1C
inactive: 786-0 > 100 µM | EKVX > 100 µM | UO-31 > 100 µM | A549 > 100 µM | MOLT-4 > 100 µM | HCC 2998 > 100 µM | NCI-H23 > 100 µM | CAKI-1 > 100 µM | CCRF-CEM > 100 µM | HL-60 > 100 µM | RPMI-8226 > 100 µM | NCI-H460 > 100 µM | KM12 > 100 µM | SN12C > 100 µM | ACHN > 100 µM

COc1cccc(NC(=S)Nn2c(C)nc3ccccc3c2=O)c1
inactive: 786-0 > 100 µM | UO-31 > 100 µM | A549 > 100 µM | MOLT-4 > 100 µM | NCI-H23 > 100 µM | CAKI-1 > 100 µM | CCRF-CEM > 100 µM | HL-60 > 100 µM | RPMI-8226 > 100 µM | OVCAR-5 > 100 µM | NCI-H460 > 100 µM | KM12 > 100 µM | SN12C > 100 µM | ACHN > 100 µM

CC(C)c1cccc(C(C)C)c1NC(=O)C(=O)C(C(=O)c1ccccc1-c1ccccc1)C1OC(=O)c2ccccc21 (configuration not stated)
inactive: 786-0 17.8 µM | EKVX > 10 µM | UO-31 18.7 µM | A549 28 µM | MOLT-4 11.6 µM | HCC 2998 17.6 µM | NCI-H23 1.25 µM | CAKI-1 30.1 µM | CCRF-CEM 13.8 µM | RPMI-8226 32.6 µM | OVCAR-5 18.5 µM | NCI-H460 15 µM | KM12 16.7 µM | SN12C 20.8 µM | ACHN 32.3 µM

CC(=O)CCCCCCCCCCCC[C@@H]1CC[C@H](C)[C@H](O)N1
inactive: 786-0 > 100 µM | EKVX > 100 µM | UO-31 67.1 µM | A549 > 100 µM | MOLT-4 > 100 µM | HCC 2998 > 100 µM | NCI-H23 > 100 µM | CAKI-1 > 100 µM | CCRF-CEM > 100 µM | HL-60 43.4 µM | RPMI-8226 > 100 µM | OVCAR-5 > 100 µM | NCI-H460 > 100 µM | KM12 > 100 µM | ACHN > 100 µM

O=C(O)c1c[nH]cc1C(=O)O
inactive: 786-0 > 100 µM | EKVX > 100 µM | UO-31 > 100 µM | A549 > 100 µM | MOLT-4 > 100 µM | NCI-H23 > 100 µM | CAKI-1 > 100 µM | CCRF-CEM > 100 µM | HL-60 > 100 µM | RPMI-8226 > 100 µM | OVCAR-5 > 100 µM | NCI-H460 > 100 µM | KM12 > 100 µM | SN12C > 100 µM

CCOC1CC2OC(=O)C1C=C2C(=O)OC (configuration not stated)
inactive: 786-0 29.2 µM | EKVX > 100 µM | UO-31 35.7 µM | A549 > 100 µM | MOLT-4 17.4 µM | HCC 2998 > 100 µM | NCI-H23 17.9 µM | CAKI-1 22.3 µM | CCRF-CEM 16.8 µM | HL-60 19.6 µM | RPMI-8226 14.7 µM | OVCAR-5 > 100 µM | NCI-H460 79.3 µM | KM12 54.5 µM | ACHN 27.8 µM

CCN(CC)C(=O)C(C)n1cc(C)c(=O)[nH]c1=O (configuration not stated)
inactive: 786-0 > 100 µM | EKVX > 100 µM | UO-31 > 100 µM | A549 > 100 µM | MOLT-4 > 100 µM | HCC 2998 > 100 µM | NCI-H23 > 100 µM | CCRF-CEM > 100 µM | HL-60 > 100 µM | RPMI-8226 > 100 µM | OVCAR-5 > 100 µM | NCI-H460 > 100 µM | KM12 > 100 µM | SN12C > 100 µM | ACHN > 100 µM

OCc1ccc2[n+](c1)CCC1c3ccccc3NC21 (configuration not stated)
inactive: 786-0 > 300 µM | EKVX > 300 µM | A549 > 300 µM | MOLT-4 > 300 µM | HCC 2998 > 300 µM | NCI-H23 > 300 µM | CAKI-1 > 300 µM | CCRF-CEM > 300 µM | HL-60 > 300 µM | RPMI-8226 > 300 µM | NCI-H460 > 300 µM | KM12 > 300 µM | SN12C > 300 µM | ACHN > 300 µM

From ChEMBL document CHEMBL1201862, “PubChem BioAssay data set” (2004)
